Experimental data reported in patent publication US20020039567A1, “Methods of treating bone or cartilage conditions by the administration of creatine” (priority 1998, published 2002).

Legend:
embryonic rat femora = experiment: Embryonic rat femora wet weight in organ culture
Procedure: The rats were sacrificed on the 17th to 18th day of pregnancy. The embryos were aseptically removed from the uterus, and both femora were carefully dissected free into sterile TBSS under the stereo-microscope. Organ-culture of the rudiments was performed in 10 cm^2 plastic culture dishes. A Teflon carrier with a nylon mesh (20 μm pore size) was mounted in the dish, keeping the explants floating and ensuring optimal gas exchange and nutritional conditions. The right and the left femora from each animal were randomly assigned to the experimental or control group. The control groups were kept in 3 ml B with 50 μg/ml ascorbate. In the experimental group, the growth medium was supplemented with either 10 mM creatine, 20 mM creatine, 1 mM GPA, 5 mM GPA, or 10 mM GPA. The growth medium was renewed every second day until day 10. Culture was carried out at 37.5° C. and in a 5% CO2 atmosphere. At 10 days, the wet weight of each femora was determined on a microbalance. The result of each experimental femora was expressed relative to its collateral control. For the histological evaluation, the femora as fixed in 4% formaldehyde, dehydrated, and embedded in methylmethacrylate. The 6 μm sections were stained by Pentachrome-Movat.

[1] = test system: osteoblasts (micromass culture); experiment: Mitochondrial activity (MTT conversion), micromass osteoblast cell culture; format: cell-based, rat; conditions: for MTT reaction: 2 weeks vs 1 week
Procedure: This isolation technique is based on the ability of osteoblasts to migrate from bone onto a substratum. Parietal and frontal calvariae (4 per animal) were aseptically explanted from 6 day-old IcoIbm rats. The calvariae were placed in Tyrode's balanced salt solution, calcium and magnesium free (TESS). The periosteum was enzymatically removed with 0.05% trypsin and 0.02% collagenase A (0.76 U/mg) dissolved in TBSS (40 calvaria/20 ml). The calvariae were shaken for 70 minutes in a waterbath at 37° C. They were washed with TESS and then transferred to 60 mm culture dishes (40 calvariae/dish) containing 5 ml of 0.02% collagenase A (0.76 U/mg) in culture medium BGJb Fitton-Jackson modification and placed in the incubator for 4 hours. The calvariae were then washed with culture medium B supplemented with 10% foetal calf serum (FCS). The calvariae were transferred into 60 mm culture dishes (4 frontal and 4 parietal/dish). The growth medium supplemented with 10% FCS and 50 μg/ml ascorbate was completely changed every 48 hours. The culture was kept for 3 weeks.
After 3 weeks the migrated cells were harvested. The dish was washed with TESS, and 5 ml of TESS containing 0.05% trypsin and 0.02% collagenase A (0.76 U/mg) was added. After 1 hour in the incubator, the dish was washed with culture medium BGJb supplemented with 10% FCS. The dishes containing the calvariae and cells were rinsed with serum containing media BGJb. […] The viability of the resuspended cells was examined by the dye exclusion of 0.4% trypan blue, and the cells were counted in a haeinocytometer. […]
Originally, Mosmann, 1983 described the general principle involved in the detection of cell growth/cell death as indicated by the conversion of the tetrazolium salt (MTT) to the colored formazan by mitochondrial dehydrogenases. The concentration of this can then be measured spectrophotoinetrically. […]
6. The absorbance of the supernatant (3 aliquots/dish) was read at 550 nm versus DMSO.
If the absorbance was higher than 1, the samples were diluted with DMSO.

Row | Compound | wet weight of femora (FIG. 5) (embryonic rat femora; 1 mM GPA vs control) | wet weight of femora (FIG. 5) (embryonic rat femora; 5 mM GPA vs control, p<0.0005) | wet weight of femora (FIG. 5) (embryonic rat femora; 10 mM GPA vs control, p<0.015) | MTT reaction ([1]; 10 mM creatine, p<0.02) | MTT reaction ([1]; 20 mM creatine, p<0.006) | MTT conversion ([1]; 20 mM creatine, 3 weeks vs 2 weeks, p<0.015) | wet weight of femora (FIG. 5) (embryonic rat femora; 10 mM creatine vs control, p<0.0005) | wet weight of femora (FIG. 5) (embryonic rat femora; 20 mM creatine vs control, p<0.001)
1 | N=C(N)NCCC(=O)O [GPA, beta-guanidinopropionic acid] | not significantly different from the control | control (FIG. 5) had significantly lower wet weights than | control (FIG. 5) had significantly lower wet weights than | – | – | – | – | –
2 | CN(CC(=O)O)C(=N)N [creatine] | – | – | – | significantly higher MTT reaction | significantly higher MTT reaction | significantly lower MTT conversion | control (FIG. 5) had significantly lower wet weights than | control (FIG. 5) had significantly lower wet weights than
